Values quoted from earlier work, collected in patent US20220211602A1, “INCREASING THE STABILITY OF AGENTS FOR TREATING KERATIN MATERIAL” (Henkel AG & Co. KGaA, priority 2019, published 2022).

Conditions: for solubility in water: 25° C.

SMILES	solubility in water (in words) (at 25° C.)	solubility in water
O=C([O-])C1=NN(c2ccc(S(=O)(=O)[O-])cc2)C(=O)C1N=Nc1ccc(S(=O)(=O)[O-])cc1.[Na+].[Na+].[Na+] (stereo not shown) [Acid Yellow 23, trisodium salt of4,5-dihydro-5-oxo-1-(4-sulfophenyl)-4-((4-sulfophenyl)azo)-1H-pyrazole-3-carboxylic acid]	highly soluble	
O=S(=O)([O-])c1ccc(N=Nc2c(O)ccc3ccccc23)cc1.[Na+] [Acid Orange 7, sodium salt of 4-[(2-hydroxy-1-naphthyDazo]benzene sulphonate]		more than 7 g/L
Nc1cc(S(=O)(=O)[O-])cc2cc(S(=O)(=O)[O-])c(N=Nc3ccccc3)c(O)c12.[Na+].[Na+] [Acid Red 33, disodium salt of 5-amino-4-hydroxy-3-(phenylazo)-naphthalene-2,7-disulphonate]		2500 µg/mL
O=C([O-])c1c(Cl)c(Cl)c(Cl)c(Cl)c1-c1c2c(Br)cc(=O)c(Br)c-2oc2c(Br)c(O)cc(Br)c12.O=C([O-])c1c(Cl)c(Cl)c(Cl)c(Cl)c1-c1c2c(Br)cc(=O)c(Br)c-2oc2c(Br)c(O)cc(Br)c12.[Na+].[Na+] [Acid Red 92, disodium salt of 3,4,5,6-tetrachloro-2-(1,4,5,8-tetrabromo-6-hydroxy-3-oxoxanthen-9-yl)benzoic acid]		greater than 10 g/L
